# Results: patent US8129404B2, “Compounds and uses thereof” (Plexxikon Inc., priority 2009, dated 2012)
# Where two headings read alike, the source gives them in different places.
# Experiments:
# CYP3A4(BFC) = molecular target: T1, CYP3A4(BFC) (Homo sapiens, UniProt P08684); test: CYP inhibition fluorescence assay, CYP3A4 with BFC substrate; format: in vitro ADME; settings: read-out: Cyp IC50 3A4(BFC)
# T1 construct: purchased BD Biosciences
# Procedure: (§1) CYP (Cytochrome P450) enzymes are the major drug metabolizing enzymes present in the liver. The inhibition of CYP enzyme activity (IC50) for each of CYP1A2, CYP2C19, CYP2C9, CYP2D6, CYP3A4(BFC) and CYP3A4(BQ) is determined for compounds, where inhibition of metabolism of a known substrate leads to a decrease in the fluorescence of the metabolized product. The fluorescence of the product is monitored as a function of compound concentration. Compounds are dissolved in dimethyl sulfoxide to a concentration of 100 mM. These are diluted 1 μL into 82 μL of acetonitrile. An 11 μL aliquot of this solution is then added to 204 μL of cofactor mix (1.3% NADPH Regeneration system Solution A, 1.04% NADPH Regeneration system Solution B from BD Biosciences, 5% acetonitrile and 0.05% dimethyl sulfoxide). These are then serially diluted 160 μL to 160 μL co-factor mix for a total of 10 points. A 10 μL aliquot of this final mixture is dispensed into 384 well assay plates and incubated for 10 minutes at 37° C. Enzyme and substrate mix (10 μL; 0.5 pmol CYP1A2/5 μM CEC; 1.0 pmol CYP2C9/75 μM MFC; 0.5 pmol CYP2C19/25 μM CEC; 1.5 pmol CYP2D6/1.5 μM AMMC; 1.0 pmol CYP3A4/50 μM BFC; or 1.0 pmol CYP3A4/40 μM BQ) is added to these assay plates. […] (CYP1A2-15 min; CYP2C9-45 min; CYP2C19, 2D6 and 3A4-30 min) and read in a Tecan Safire 2 plate reader (CYP1A2, 2C19 and 3A4 409 ex/460 em; CYP2C9 and 2D6 409 ex/530 em). […]
# B-Raf mutant V600E = molecular target: T2, B-Raf mutant V600E (Homo sapiens, UniProt P15056, V600E); test: Raf kinase biochemical assay (biotin-MEK1 phosphorylation, AlphaScreen), B-Raf V600E; settings: 100 μM ATP, biotin-MEK1 substrate
# T2 construct: purchased Upstate Biotechnology
# Procedure: (§2) Assays for biochemical and cell based activity are known in the art, for example, as described in PCT publication WO 2007/002433, the disclosure of which is hereby incorporated by reference as it relates to such assays. For example, the biochemical activity IC50 values are determined with respect to inhibition of B-Raf kinase activity, c-Raf-1 kinase activity, or B-Raf V600E kinase activity, where inhibition of phosphorylation of a peptide substrate is measured as a function of compound concentration. Compounds to be tested are diluted in dimethyl sulfoxide to a concentration of 0.1 mM. These are serially diluted 15 μL into 30 μL of dimethyl sulfoxide seven times in 96 well plates for a total of 8 dilution points, and for each dilution point 1 μL is added to a well of an assay plate. Plates are prepared such that each well in a 384 well plate contains 1 μL of compound in 10 μL volume with 0.1 ng Raf enzyme (i.e. any of B-Raf, c-Raf-1 or B-Raf V600E, Upstate Biotechnology or prepared by methods known to one of skill in the art), 50 mM HEPES, pH 7.0, 50 mM NaCl, 2 mM MgCl2, 1 mM MnCl2, 0.01% Tween-20, 1 mM DTT, and 100 nM biotin-MEK1 as substrate. The reaction is started with addition of 10 μL of 200 μM ATP (i.e. final 100 μM ATP). […] The plates are incubated for 3 hours at room temperature and read on Envision reader (Perkin Elmer). […]
# TrkA = TrkA (Homo sapiens, UniProt P04629); test: Kinase biochemical assay, TrkA
# CYP2C19 = molecular target: T3, CYP2C19 (Homo sapiens, UniProt P33261); test: CYP inhibition fluorescence assay, CYP2C19; format: in vitro ADME; settings: substrate CEC; read-out: Cyp IC50 2C19
# T3 construct: purchased BD Biosciences
# Procedure: as §1
# Btk = Btk (Homo sapiens, UniProt Q06187); test: Kinase biochemical assay, Btk
# c-Raf-1 = molecular target: T4, c-Raf-1 (Homo sapiens, UniProt P04049); test: Raf kinase biochemical assay (biotin-MEK1 phosphorylation, AlphaScreen), c-Raf-1; settings: 100 μM ATP, biotin-MEK1 substrate
# T4 construct: purchased Upstate Biotechnology
# Procedure: as §2
# CYP2D6 = molecular target: T5, CYP2D6 (Homo sapiens, UniProt P10635); test: CYP inhibition fluorescence assay, CYP2D6; format: in vitro ADME; settings: substrate AMMC; read-out: Cyp IC50 2D6
# T5 construct: purchased BD Biosciences
# Procedure: as §1
# [1] = Turbidity assay of relative solubility in aqueous buffers of varying pH; format: physicochemical
# Procedure: As an indication of relative solubility, the turbidity of compounds in aqueous solutions is assessed. To assess possible compound properties in different physiological compartments, such as stomach, intestine, and blood, a series of aqueous buffers with varying pH is used. Thus each compound is diluted into four different physiologically relevant buffers and solution turbidity is measured by spectrophotometry.
# Compounds are dissolved at a concentration of 25 mM in dimethyl sulfoxide, then serially diluted 1:1 into a 96 well plate, diluting 10 times in pure dimethyl sulfoxide, with the final well of each row a dimethyl sulfoxide blank. In an assay plate, 99 μL of appropriate buffer is added to each well, and 1 μL of each sample dilution is added to the buffer, achieving a range of final total concentrations in aqueous solutions having different pH. […] Control compounds pyrene, estriol and propranolol HCl are also assessed. Plates are spun and then mixed for 1 minute, and the absorbance is read using a Tecan Safire II to read wavelengths in the visible range (490, 535, and 650 nm) at four locations per well, reflecting the degree of turbidity present. The average optical density for each wavelength in each well is graphed vs. compound concentration, and the concentration at which the curve crosses a threshold O.D. of 0.01 for each wavelength is reported as the endpoint turbidity assay result. The average of the three wavelengths is used to compare turbidity of compounds. Compounds are considered to have low solubility if the threshold concentration is <31.3 μM, moderate solubility if the threshold concentration is 31.3 μM to 250 μM, and high solubility if the threshold concentration is >250 μM.
# CYP2C9 = molecular target: T6, CYP2C9 (Homo sapiens, UniProt P11712); test: CYP inhibition fluorescence assay, CYP2C9; format: in vitro ADME; settings: substrate MFC; read-out: Cyp IC50 2C9
# T6 construct: purchased BD Biosciences
# Procedure: as §1
# [2] = pKa of weakly basic and weakly acidic centers; format: physicochemical; settings: approximate
# Fms = Fms (Homo sapiens, UniProt P07333); test: Kinase biochemical assay, Fms
# Hgk = Hgk (Homo sapiens, UniProt O95819); test: Kinase biochemical assay, Hgk
# Kit = Kit (Homo sapiens, UniProt P10721); test: Kinase biochemical assay, Kit
# CYP1A2 = molecular target: T7, CYP1A2 (Homo sapiens, UniProt P05177); test: CYP inhibition fluorescence assay, CYP1A2; format: in vitro ADME; settings: substrate CEC; read-out: Cyp IC50 1A2
# T7 construct: purchased BD Biosciences
# T7 sequence (P05177 1-516): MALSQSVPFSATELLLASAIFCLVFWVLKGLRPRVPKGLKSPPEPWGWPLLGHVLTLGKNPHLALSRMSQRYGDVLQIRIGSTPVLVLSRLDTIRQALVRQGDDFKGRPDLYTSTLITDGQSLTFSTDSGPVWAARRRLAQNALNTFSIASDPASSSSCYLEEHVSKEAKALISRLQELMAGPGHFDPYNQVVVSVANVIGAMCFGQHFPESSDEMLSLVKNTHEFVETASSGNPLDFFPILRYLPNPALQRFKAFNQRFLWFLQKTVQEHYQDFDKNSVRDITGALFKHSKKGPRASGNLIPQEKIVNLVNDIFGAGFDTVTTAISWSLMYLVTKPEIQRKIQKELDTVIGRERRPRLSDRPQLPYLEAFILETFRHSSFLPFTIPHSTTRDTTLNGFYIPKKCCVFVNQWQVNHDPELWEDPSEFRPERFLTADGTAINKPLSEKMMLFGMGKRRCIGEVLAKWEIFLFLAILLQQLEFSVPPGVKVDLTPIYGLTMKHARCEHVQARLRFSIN
# Procedure: as §1
# B-Raf = molecular target: T8, B-Raf (Homo sapiens, UniProt P15056); test: Raf kinase biochemical assay (biotin-MEK1 phosphorylation, AlphaScreen), B-Raf; settings: 100 μM ATP, biotin-MEK1 substrate
# T8 construct: purchased Upstate Biotechnology
# Procedure: as §2
# CYP3A4(BQ) = molecular target: T9, CYP3A4(BQ) (Homo sapiens, UniProt P08684); test: CYP inhibition fluorescence assay, CYP3A4 with BQ substrate; format: in vitro ADME; settings: read-out: Cyp IC50 3A4(BQ)
# T9 construct: purchased BD Biosciences
# Procedure: as §1
# Src = Src (Homo sapiens, UniProt P12931); test: Kinase biochemical assay, Src
# Kdr = Kdr (Homo sapiens, UniProt P35968); test: Kinase biochemical assay, Kdr
# [3] = pH 1.4 (Simulated Gastric Fluid)
# [4] = pH 4.5 (Simulated Intestinal fluid)
# [5] = pH 6.8 (Simulated Intestinal fluid)
# [6] = read-out: pKa of N-7 of the pyrrolo[2,3-b]pyridine portion (weakly basic)
# [7] = read-out: pKa of the sulfonamide nitrogen (weakly acidic)
# TrkA, sequence (P04629 33-796, species assumed): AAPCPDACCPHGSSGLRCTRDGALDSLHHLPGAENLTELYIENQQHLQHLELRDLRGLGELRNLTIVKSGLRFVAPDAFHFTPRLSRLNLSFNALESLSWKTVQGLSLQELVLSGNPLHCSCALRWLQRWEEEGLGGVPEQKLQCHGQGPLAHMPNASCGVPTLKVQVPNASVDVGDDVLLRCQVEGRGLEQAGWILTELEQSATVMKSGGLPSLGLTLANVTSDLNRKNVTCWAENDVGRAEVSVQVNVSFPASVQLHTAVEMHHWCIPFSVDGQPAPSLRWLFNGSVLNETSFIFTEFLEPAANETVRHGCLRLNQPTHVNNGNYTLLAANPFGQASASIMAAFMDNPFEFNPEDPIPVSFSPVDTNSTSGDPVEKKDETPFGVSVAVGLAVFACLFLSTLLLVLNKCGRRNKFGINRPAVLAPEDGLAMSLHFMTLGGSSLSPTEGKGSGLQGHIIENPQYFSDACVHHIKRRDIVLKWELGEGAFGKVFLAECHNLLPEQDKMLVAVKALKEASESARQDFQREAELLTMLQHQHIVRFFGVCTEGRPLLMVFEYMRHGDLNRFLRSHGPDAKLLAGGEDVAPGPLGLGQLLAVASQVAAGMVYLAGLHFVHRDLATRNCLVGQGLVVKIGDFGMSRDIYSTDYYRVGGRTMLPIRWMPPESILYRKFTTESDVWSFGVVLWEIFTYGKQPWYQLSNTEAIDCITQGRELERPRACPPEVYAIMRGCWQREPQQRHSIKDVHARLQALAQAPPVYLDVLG
# T2 sequence (P15056 whole entry V600E): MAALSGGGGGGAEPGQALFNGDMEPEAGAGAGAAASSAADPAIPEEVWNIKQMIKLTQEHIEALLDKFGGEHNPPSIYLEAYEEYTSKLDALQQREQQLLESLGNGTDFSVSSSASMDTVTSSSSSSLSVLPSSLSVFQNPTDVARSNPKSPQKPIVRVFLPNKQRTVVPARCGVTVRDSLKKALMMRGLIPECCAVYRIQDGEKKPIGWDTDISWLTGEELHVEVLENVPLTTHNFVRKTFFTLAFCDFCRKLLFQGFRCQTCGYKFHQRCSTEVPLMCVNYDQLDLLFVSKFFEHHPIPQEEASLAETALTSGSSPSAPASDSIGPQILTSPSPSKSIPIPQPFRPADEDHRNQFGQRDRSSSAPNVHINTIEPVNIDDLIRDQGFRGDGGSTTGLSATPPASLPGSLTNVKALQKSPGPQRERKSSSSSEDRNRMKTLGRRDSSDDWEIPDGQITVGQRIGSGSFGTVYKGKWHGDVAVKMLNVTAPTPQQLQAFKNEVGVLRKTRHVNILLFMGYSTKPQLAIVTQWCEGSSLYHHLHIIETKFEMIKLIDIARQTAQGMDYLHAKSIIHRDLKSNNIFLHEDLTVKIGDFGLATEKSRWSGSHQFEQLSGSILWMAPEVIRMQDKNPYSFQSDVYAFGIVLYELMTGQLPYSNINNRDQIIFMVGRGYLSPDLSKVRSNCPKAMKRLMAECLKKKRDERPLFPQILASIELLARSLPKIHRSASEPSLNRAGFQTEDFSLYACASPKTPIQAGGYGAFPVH
# Fms, sequence (P07333 20-972, species assumed): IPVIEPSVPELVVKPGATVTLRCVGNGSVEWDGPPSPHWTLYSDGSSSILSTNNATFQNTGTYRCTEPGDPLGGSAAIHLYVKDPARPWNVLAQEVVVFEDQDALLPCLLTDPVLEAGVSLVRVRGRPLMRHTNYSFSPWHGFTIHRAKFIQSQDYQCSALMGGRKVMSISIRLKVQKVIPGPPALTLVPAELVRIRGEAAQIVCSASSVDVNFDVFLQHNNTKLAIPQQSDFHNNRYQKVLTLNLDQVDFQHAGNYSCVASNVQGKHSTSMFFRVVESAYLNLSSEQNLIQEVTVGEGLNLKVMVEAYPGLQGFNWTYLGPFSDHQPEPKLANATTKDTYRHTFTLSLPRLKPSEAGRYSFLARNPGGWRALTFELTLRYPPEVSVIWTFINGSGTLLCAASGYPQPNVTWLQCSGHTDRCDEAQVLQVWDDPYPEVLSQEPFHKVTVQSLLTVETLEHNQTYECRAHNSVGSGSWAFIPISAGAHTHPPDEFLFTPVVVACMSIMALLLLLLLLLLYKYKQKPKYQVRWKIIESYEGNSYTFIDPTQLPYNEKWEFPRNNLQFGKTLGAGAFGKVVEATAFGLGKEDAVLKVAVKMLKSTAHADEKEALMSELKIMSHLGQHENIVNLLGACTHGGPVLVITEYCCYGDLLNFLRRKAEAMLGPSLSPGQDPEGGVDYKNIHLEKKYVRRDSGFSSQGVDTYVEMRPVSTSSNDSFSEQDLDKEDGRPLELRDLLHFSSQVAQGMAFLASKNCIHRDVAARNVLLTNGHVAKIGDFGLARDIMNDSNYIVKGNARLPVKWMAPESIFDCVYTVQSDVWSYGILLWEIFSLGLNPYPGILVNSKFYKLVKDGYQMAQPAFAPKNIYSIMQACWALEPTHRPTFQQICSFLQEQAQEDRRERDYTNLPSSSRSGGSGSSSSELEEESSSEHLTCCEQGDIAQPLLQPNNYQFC
# T1 sequence (P08684 whole entry): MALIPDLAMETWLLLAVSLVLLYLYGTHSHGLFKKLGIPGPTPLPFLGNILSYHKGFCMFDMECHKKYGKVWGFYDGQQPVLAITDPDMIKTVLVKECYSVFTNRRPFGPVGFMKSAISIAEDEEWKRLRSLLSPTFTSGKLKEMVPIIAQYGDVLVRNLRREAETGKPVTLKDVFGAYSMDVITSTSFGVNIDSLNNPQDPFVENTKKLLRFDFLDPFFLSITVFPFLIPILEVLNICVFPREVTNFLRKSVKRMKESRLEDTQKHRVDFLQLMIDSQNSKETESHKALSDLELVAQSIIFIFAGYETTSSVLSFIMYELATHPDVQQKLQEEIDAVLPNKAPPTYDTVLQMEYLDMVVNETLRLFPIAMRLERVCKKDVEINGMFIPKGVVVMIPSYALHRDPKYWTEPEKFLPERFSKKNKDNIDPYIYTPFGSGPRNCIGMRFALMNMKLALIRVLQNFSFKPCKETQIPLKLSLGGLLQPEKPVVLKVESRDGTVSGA
# T9 sequence (P08684 whole entry): as above
# T6 sequence (P11712 whole entry): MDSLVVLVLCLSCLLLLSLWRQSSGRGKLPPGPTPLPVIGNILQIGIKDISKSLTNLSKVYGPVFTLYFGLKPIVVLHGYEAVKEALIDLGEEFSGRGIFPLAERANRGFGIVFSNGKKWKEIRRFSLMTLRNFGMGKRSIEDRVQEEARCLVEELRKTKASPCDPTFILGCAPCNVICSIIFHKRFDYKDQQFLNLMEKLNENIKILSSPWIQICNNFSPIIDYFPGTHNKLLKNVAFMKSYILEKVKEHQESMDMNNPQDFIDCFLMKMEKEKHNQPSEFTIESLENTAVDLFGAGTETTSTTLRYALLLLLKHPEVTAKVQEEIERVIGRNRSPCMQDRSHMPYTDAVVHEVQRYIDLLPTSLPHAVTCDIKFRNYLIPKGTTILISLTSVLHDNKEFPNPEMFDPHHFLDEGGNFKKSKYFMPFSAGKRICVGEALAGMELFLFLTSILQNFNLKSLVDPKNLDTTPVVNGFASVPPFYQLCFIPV
# Kdr, sequence (P35968 20-1356, species assumed): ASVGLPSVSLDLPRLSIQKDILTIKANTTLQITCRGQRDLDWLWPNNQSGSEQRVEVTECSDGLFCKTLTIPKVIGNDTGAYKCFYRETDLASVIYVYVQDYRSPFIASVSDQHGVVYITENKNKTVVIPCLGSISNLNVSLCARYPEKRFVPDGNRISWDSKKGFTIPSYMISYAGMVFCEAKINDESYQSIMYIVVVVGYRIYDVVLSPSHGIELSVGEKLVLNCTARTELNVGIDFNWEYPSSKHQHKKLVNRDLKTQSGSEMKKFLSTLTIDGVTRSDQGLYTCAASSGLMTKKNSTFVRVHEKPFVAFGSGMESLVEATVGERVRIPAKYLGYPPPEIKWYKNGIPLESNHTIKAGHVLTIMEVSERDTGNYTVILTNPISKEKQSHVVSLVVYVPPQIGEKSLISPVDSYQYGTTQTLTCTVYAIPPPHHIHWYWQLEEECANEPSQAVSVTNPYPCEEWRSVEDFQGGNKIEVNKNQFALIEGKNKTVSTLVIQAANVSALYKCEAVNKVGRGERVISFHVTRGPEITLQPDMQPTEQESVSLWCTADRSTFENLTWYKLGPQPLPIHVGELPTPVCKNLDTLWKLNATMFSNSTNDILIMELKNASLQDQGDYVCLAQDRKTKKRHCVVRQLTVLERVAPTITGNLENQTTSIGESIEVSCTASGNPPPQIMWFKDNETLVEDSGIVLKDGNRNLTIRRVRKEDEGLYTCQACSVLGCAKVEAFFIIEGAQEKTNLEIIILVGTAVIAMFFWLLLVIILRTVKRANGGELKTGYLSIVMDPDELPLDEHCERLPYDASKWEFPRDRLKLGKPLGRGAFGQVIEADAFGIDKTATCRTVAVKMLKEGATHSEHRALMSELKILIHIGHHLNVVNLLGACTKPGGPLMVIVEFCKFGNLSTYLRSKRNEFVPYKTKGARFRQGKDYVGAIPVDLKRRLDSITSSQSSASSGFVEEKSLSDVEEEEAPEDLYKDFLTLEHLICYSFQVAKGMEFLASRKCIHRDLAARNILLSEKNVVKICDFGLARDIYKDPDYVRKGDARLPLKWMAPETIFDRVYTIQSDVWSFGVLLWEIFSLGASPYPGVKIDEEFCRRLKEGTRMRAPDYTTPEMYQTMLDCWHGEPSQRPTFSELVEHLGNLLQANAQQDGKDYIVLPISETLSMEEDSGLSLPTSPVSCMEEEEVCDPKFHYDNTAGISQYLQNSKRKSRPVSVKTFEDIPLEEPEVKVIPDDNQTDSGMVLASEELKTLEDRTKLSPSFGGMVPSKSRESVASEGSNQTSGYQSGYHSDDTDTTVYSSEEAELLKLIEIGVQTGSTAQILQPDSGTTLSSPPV
# T8 sequence (P15056 whole entry): as the sequence (P15056 whole entry V600E) above, with E600V counted along it
IC50 (CYP3A4(BFC)) [µM],IC50 (B-Raf mutant V600E) [µM],IC50 (TrkA) [µM],IC50 (CYP2C19) [µM],IC50 (Btk) [µM],IC50 (c-Raf-1) [µM],IC50 (CYP2D6) [µM],IC50 (CYP2C9) [µM],"pKa [2, 6]","pKa [2, 7]",IC50 (Fms) [µM],IC50 (CYP1A2) [µM],IC50 (B-Raf) [µM],IC50 (CYP3A4(BQ)) [µM],IC50 (Src) [µM],IC50 (Kdr) [µM],Structure (SMILES),"turbidity threshold (L, M, H) [1, 3]","turbidity threshold (L, M, H) [1, 4]","turbidity threshold (L, M, H) [1, 5]","turbidity threshold (L, M, H) ([1]; pH 7.4 (Hepes Buffer))",other results
> 10,< 1,1 to 10,> 10,> 10,< 0.1,> 10,> 10,4 to 5,~7,> 10,> 10,< 0.1,> 10,1 to 10,> 10,"N#Cc1ccnc2[nH]cc(C(=O)c3c(F)ccc(NS(=O)(=O)c4ccc(C(F)(F)F)cc4)c3F)c12 [Compound P-0001, N-[3-(4-cyano-1H-pyrrolo[2,3-b]pyridine-3-carbonyl)-2,4-difluoro-phenyl]-4-trifluoromethyl-benzenesulfonamide]",L (low solubility if the threshold concentration is <31.3 μM),L (low solubility if the threshold concentration is <31.3 μM),L (low solubility if the threshold concentration is <31.3 μM),M (moderate solubility if the threshold concentration is 31.3 μM to 250 μM),IC50 (Hgk): > 10 µM; IC50 (Kit): 1 to 10 µM
5 to 10,< 1,> 10,> 10,> 10,< 0.1,> 10,< 5,4 to 5,~7,> 10,> 10,< 0.1,> 10,~1,~1,"C#Cc1ccnc2[nH]cc(C(=O)c3c(F)ccc(NS(=O)(=O)c4ccc(C(F)(F)F)cc4)c3F)c12 [Compound P-0002, N-[3-(4-ethynyl-1H-pyrrolo[2,3-b]pyridine-3-carbonyl)-2,4-difluoro-phenyl]-4-trifluoromethyl-benzenesulfonamide]",L (low solubility if the threshold concentration is <31.3 μM),L (low solubility if the threshold concentration is <31.3 μM),M (moderate solubility if the threshold concentration is 31.3 μM to 250 μM),M (moderate solubility if the threshold concentration is 31.3 μM to 250 μM),
